The record followed here is patent US20020061888A1, “Combination therapy for the prophylaxis and treatment of hyperlipidemic conditions and disorders” (priority 2000, published 2002).

The nature of the data set: Water uptake experiments (Dynamic Vapor Sorption, water sorption/desorption isotherms at 25° C.). It counts as physicochemical. As to the method: A dry sample of the crystalline form having a melting point or a decomposition point of about 278° C. to about 285° C. (i.e., Form II) typically gains less than about 1% of its own weight when equilibrated under 80% relative humidity (RH) air at 25° C. […] For the present purposes, the term “essentially 0% RH” means less than about 1% RH. The term “equilibrated” means that the change in weight of a sample over time at a given relative humidity is less than 0.0003% ((dm/dt)/m0 ×100, where m is mass in mg, m0 is initial mass, and t is time in minutes).
Water sorption experiments are performed on a Dynamic Vapor Sorption (DVS) apparatus (DVS-1000 manufactured by Surface Measurements Systems, Inc.). Experiments are performed at 25° C. by initially drying the material of interest (about 10 mg sample) from 30% relative humidity (RH) ([…] RH step) by purging with dry nitrogen until no further weight change was observed. The samples are then exposed to a stepwise (10% RH steps) increase in RH from about 0 to about 90% RH. Each successive step is initiated when the change in weight over time at the relative humidity was less than 0.0003% ((dm/dt)/m0×100, where m is mass in mg, m0 is initial mass, and t is time in minutes). The sample is then taken through the reverse of the stepwise % RH increase. The data are collected on a computer and analyzed using SMS' proprietary MS-Excel macro interface software.

The structures appear in SMILES notation.

For `CCCCC1(CCCC)CS(=O)(=O)c2ccc(N(C)C)cc2[C@@H](c2ccc(OCc3ccc(C[N+]45CCN(CC4)CC5)cc3)cc2)[C@H]1O` [Form I, (4R,5R)-1-((4-(4-(3,3-dibutyl-7-(dimethylamino)-2,3,4,5-tetrahydro-4-hydroxy-1,1-dioxido-1-benzithiepin-5-yl)phenoxy)methyl)phenyl)methyl-4-aza-1-azoniabicyclo[2.2.2]octane chloride], the “Desorption % Weight Change” value was 0.057% (0.45% RH at 25° C.); 0.997% (9.2% RH at 25° C.); 2.1025% (20.05% RH at 25° C.); 3.599% (29.75% RH at 25° C.); 4.743% (39.4% RH at 25° C.); 5.321% (49.55% RH at 25° C.). The “Desorption % Weight Change” value by setting is: (59.4% RH at 25° C.) 5.726%; (69.05% RH at 25° C.) 6.054%; (78.8% RH at 25° C.) 6.357%; (88.5% RH at 25° C.) 6.734%. In addition, the “Sorption % Weight Change” value is given as 0.057% (0.45% RH at 25° C.); 0.9575% (9.2% RH at 25° C.); 2.016% (20.05% RH at 25° C.); 3.4105% (29.75% RH at 25° C.); 4.282% (39.4% RH at 25° C.); 4.928% (49.55% RH at 25° C.). The “Sorption % Weight Change” value is, setting by setting: (59.4% RH at 25° C.) 5.356%; (69.05% RH at 25° C.) 5.706%; (78.8% RH at 25° C.) 6.109%; (88.5% RH at 25° C.) 6.734%.

Consider `CCCCC1(CCCC)CS(=O)(=O)c2ccc(N(C)C)cc2[C@@H](c2ccc(OCc3ccc(C[N+]45CCN(CC4)CC5)cc3)cc2)[C@H]1O` [Form II, (4R,5R)-1-((4-(4-(3,3-dibutyl-7-(dimethylamino)-2,3,4,5-tetrahydro-4-hydroxy-1,1-dioxido-1-benzithiepin-5-yl)phenoxy)methyl)phenyl)methyl-4-aza-1-azoniabicyclo[2.2.2]octane chloride], for which the “Desorption % Weight Change” value is, setting by setting: (1.3% RH at 25° C.) −0.02695%; (9.35% RH at 25° C.) 0.04235%; (20.25% RH at 25° C.) 0.09715%; (29.75% RH at 25° C.) 0.1444%; (39.55% RH at 25° C.) 0.1866%; (49.7% RH at 25° C.) 0.2636%. Also, the “Desorption % Weight Change” value reads like this: (59.5% RH at 25° C.) 0.331%; (69.1% RH at 25° C.) 0.3983%; (78.65% RH at 25° C.) 0.4849%; (88.5% RH at 25° C.) 0.6446%. The “Sorption % Weight Change” value runs as follows: (1.3% RH at 25° C.) −0.02695%; (9.35% RH at 25° C.) 0.04715%; (20.25% RH at 25° C.) 0.1058%; (29.75% RH at 25° C.) 0.1376%; (39.55% RH at 25° C.) 0.1809%; (49.7% RH at 25° C.) 0.2386%. Moreover, the “Sorption % Weight Change” value came out at 0.304% (59.5% RH at 25° C.), 0.3945% (69.1% RH at 25° C.), 0.4695% (78.65% RH at 25° C.) and 0.6446% (88.5% RH at 25° C.). Also, the hygroscopicity entry (crystalline form, 80% RH air at 25° C.) is “essentially non-hygroscopic”. Under “dry sample (dried at essentially 0% RH, about 25° C., dry nitrogen purge)”, the “weight gain when equilibrated under 80% relative humidity (RH) air at 25° C.” value was “less than 1 % of its own weight”.
